# Structures can show the parent of a compound that is named as a salt.
# How the values were obtained:
# [1] = target: CYP3A12 (Canis lupus familiaris, UniProt P24463); assay: CYP3A12 activity inhibition in pooled dog liver microsomes; details: CYP3A12; no preincubation vs 20 min preincubation; 10 μM
# Procedure: (§1) Inhibition potency (i.e. IC50) is determined by measuring the decrement in metabolism of P450-specific marker activities in pooled dog liver microsomes with increasing concentrations of CBD, CBDA, and hemp extracts. P450-specific markers include bupropion 6-hydroxylation (CYP2B11), dextromethorphan 0-demethylation (CYP2D15) and omeprazole sulfoxidation (CYP3A12). IC50 values are determined both with and without preincubation of liver microsomes with potential inhibitor to evaluate whether there is mechanism-based time-dependent inhibition.
# (§2) The following parameters are assessed: (1) the rates of CBD and CBDA metabolism by dog liver microsomes and by 11 recombinant canine P450 enzymes; (2) the predicted percent contribution of each P450 to total CBD and CBDA metabolism in dog liver; and (3) IC50 values for inhibition of CYP2B11, CYP2D15 and CYP3A12 metabolism in dog liver, both with and without inhibitor preincubation.
# (§3) FIGS. 13-15 show activity assays for CYP3A12 (FIGS. 13A and 13B), CYP2B11 (FIGS. 14A and 14B), and CYP2D15 (FIGS. 15A and 15B). Assays using either no preincubation (FIGS. 13A, 14A, and 15A) or 20 minutes of preincubation (FIGS. 13B, 14B, and 15B) were performed.
# [2] = target: T1, CYP2B11 (Canis lupus familiaris, UniProt P24460); assay: CYP2B11 activity inhibition in pooled dog liver microsomes; details: CYP2B11; no preincubation vs 20 min preincubation; 10 μM
# T1 sequence (P24460 1-494): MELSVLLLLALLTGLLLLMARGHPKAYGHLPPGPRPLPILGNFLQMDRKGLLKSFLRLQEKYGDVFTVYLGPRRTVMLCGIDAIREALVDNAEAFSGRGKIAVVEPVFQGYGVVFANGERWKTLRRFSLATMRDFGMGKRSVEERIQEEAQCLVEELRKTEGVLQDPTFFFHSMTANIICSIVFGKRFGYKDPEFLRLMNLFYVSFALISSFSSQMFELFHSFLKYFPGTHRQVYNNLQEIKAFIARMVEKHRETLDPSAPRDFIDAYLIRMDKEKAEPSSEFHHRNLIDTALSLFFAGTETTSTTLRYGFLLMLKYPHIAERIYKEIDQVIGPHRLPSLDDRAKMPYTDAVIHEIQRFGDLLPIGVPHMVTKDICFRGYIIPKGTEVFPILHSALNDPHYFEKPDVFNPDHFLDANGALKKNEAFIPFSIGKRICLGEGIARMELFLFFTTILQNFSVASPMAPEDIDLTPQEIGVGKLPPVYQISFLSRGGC
# Procedure: as §1, §2, §3
# [3] = target: T2, CYP2D15 (Canis lupus familiaris, UniProt Q29473); assay: CYP2D15 activity inhibition in pooled dog liver microsomes; format: in vitro ADME; details: no preincubation vs 20 min preincubation, 10 μM
# T2 construct: P450-specific marker activities in pooled dog liver microsomes; from tissue; host or cells: pooled dog liver microsomes
# T2 sequence (Q29473 1-500): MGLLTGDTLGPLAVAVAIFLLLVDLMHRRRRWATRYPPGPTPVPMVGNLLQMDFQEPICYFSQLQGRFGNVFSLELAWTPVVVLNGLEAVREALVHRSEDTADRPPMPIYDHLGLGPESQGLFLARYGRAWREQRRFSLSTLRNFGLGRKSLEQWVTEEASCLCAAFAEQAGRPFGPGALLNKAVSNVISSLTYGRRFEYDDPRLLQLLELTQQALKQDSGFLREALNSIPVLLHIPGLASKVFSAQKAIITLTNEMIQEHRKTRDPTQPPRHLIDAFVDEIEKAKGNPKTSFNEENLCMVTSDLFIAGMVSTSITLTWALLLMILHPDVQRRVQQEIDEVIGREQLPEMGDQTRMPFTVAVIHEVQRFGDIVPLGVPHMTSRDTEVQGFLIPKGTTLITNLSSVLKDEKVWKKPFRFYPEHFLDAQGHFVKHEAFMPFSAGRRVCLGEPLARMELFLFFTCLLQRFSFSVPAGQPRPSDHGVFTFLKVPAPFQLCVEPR
# [4] = tested on: 17-71 B cell lymphoma cell line; assay: 48 hours MTT proliferation assay, 17-71; format: cell-based, canine; details: pure compound
# Procedure: (§4) 3-(4,5-Dimethylthaizol-2-yl)-2,5-diphenyltetrazolium bromide (MTT) assays are performed on all previously described cell lines; CMT12, HMPOS, D17, Abrams and 17-71. […] Cells are treated with vehicle (methanol or ethanol/DMSO mix) or various concentrations of the CBD, CBDA or CBD-rich hemp extract ranging from 0.42 to 20 μg/mL in serial dilution for 48 hours. MTT assays are performed after 48 hours of treatment by adding 20 μL of MTT dye ([…] filtered 5 mg/mL in phosphate-buffered saline [PBS]) to each well and incubating at 37° C. in 5% CO2 for 2 hours. The media is then aspirated, washed once with 200 μL of PBS and then solubilized in 200 μL of ethanol. Immediate analysis of the optical density of each well is performed using a spectrophotometric plate reader (Epoch; Biotek, Winooski, Vermont) at a wavelength of 570 nm as previously described (e.g., Vega-Avila E and Pugsley M K, An overview of colorimetric assay methods used to assess survival or proliferation of mammalian cells, Proc West Pharmacol Soc., 2011, 54, pp. 10-14 which is incorporated herein by reference in its entirety). The percent proliferating cells of control for each concentration is averaged and reported as a mean+/—SD from triplicate wells over three experiments.
# (§5) For CBD, CBDA and hemp extract concentrations needed to obtain a 50% inhibition of cell proliferation (IC50) are then calculated across experiments by Probit analysis using XLFit5 software (IDBS, Guildford, United Kingdom) for reporting the results for each cell line.
# [5] = tested on: CMT12 mammary gland carcinoma cell line; assay: 48 hours MTT proliferation assay, CMT12; format: cell-based, canine; details: pure compound
# Procedure: as §4, §5
# [6] = tested on: Abrams osteosarcoma cell line; assay: 48 hours MTT proliferation assay, Abrams; format: cell-based, canine; details: pure compound
# Procedure: as §4, §5
# [7] = tested on: D17 osteosarcoma cell line; assay: 48 hours MTT proliferation assay, D17; format: cell-based, canine; details: pure compound
# Procedure: as §4, §5
# [8] = tested on: HMPOS osteosarcoma cell line; assay: 48 hours MTT proliferation assay, HMPOS; format: cell-based, canine; details: pure compound
# Procedure: as §4, §5
# [9] = target: T3, canine P-glycoprotein (Canis lupus familiaris, UniProt C0KKU9); assay: P-glycoprotein competitive transport assay (rhodamine 123, MDCK PGP cells); format: in vitro ADME; details: rhodamine competition, CBD at 1000 ng/mL
# T3 construct: host or cells: MDCK PGP cells (canine P-gp expressing cell line)
# T3 sequence (C0KKU9 1-1281): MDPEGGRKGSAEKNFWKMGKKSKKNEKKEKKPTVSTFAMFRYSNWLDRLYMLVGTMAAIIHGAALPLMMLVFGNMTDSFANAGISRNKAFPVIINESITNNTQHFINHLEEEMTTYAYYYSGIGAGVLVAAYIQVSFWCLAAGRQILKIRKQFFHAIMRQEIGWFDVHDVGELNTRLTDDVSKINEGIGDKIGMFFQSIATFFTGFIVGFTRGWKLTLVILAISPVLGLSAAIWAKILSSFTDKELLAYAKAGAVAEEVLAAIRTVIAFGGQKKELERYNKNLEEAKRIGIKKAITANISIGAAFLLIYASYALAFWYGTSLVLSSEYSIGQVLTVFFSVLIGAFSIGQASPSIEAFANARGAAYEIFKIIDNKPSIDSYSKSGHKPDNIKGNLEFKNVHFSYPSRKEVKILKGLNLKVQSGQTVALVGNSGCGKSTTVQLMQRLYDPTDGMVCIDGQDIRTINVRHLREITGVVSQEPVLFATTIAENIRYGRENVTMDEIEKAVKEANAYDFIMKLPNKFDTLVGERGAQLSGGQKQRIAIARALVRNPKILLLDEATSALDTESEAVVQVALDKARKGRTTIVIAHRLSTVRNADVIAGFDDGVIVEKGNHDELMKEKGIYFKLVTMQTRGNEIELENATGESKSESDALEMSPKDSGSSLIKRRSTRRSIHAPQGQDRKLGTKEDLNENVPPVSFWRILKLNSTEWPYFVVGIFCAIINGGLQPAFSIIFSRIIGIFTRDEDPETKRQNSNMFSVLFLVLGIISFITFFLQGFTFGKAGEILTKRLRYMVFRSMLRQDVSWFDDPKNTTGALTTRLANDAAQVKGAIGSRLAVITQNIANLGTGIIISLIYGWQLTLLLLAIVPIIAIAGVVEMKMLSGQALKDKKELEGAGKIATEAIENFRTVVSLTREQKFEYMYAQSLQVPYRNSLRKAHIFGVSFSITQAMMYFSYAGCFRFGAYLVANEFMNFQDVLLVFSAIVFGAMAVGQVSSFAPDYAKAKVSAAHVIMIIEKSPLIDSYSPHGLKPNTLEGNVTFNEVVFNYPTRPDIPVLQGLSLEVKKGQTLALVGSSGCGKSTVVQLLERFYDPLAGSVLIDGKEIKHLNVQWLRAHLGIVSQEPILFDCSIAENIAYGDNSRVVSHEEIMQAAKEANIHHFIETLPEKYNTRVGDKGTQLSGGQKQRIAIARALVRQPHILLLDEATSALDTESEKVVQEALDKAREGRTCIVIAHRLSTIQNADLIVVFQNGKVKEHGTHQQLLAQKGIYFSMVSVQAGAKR
# Procedure: In this second study, a competitive P-gp substrate assay incorporating a canine P-gp expressing cell line is used to assess each test compound's ability to compete with the P-gp substrate rhodamine 123. Each concentration is tested on 3 separate days with same-day duplicates. Positive controls and negative controls are included in each run.
# Results for each concentration of test compound evaluated are reported as non-P-gp substrate, weak P-gp substrate, moderate P-gp substrate, or strong P-gp substrate. The concentrations for CBD and CBDA are as follows: 10 ng/mL, 100 ng/mL and 1,000 ng/mL.
# A competitive P-gp substrate assay using a canine P-gp expressing cell line was used to assess CBDA and/or CBD as a substrate for canine P-glycoprotein.
# [10] = Pharmacokinetics of three oral forms of CBD-rich hemp extract in dogs (serum LC-MS/MS); details: oral hemp extract forms 2 mg/kg CBD/CBDA
# Source text: The pharmacokinetics of cannabidiol (CBD), cannabidiolic acid (CBDA), Δ9-tetrahydrocannabinol (THC), and tetrahydrocannabinolic acid (THCA) on three oral forms of CBD-rich hemp extract that contained near equal amounts of CBD and CBDA, and minor amounts (<0.3% by weight) of THC and THCA in dogs were studied. The metabolized psychoactive component of THC, 11-hydroxy-Δ9-tetrahydrocannabinol (11-OH-THC) and CBD metabolites 7-hydroxycannabidiol (7-OH-CBD) and 7-nor-7-carboxycannabidiol (7-COOH-CBD) were also assessed to better understand the pharmacokinetic differences between three formulations regarding THC and CBD, and their metabolism. Six purpose-bred female beagles were utilized for study purposes, each having an initial 7-point, 24-h pharmacokinetic study performed using a dose of 2 mg/kg body weight of CBD/CBDA (˜1 mg/kg CBD and ˜1 mg/kg CBDA). Dogs were then dosed every 12 h for 2 weeks and had further serum analyses at weeks 1 and 2, 6 h after the morning dose to assess serum cannabinoids. Serum was analyzed for each cannabinoid or cannabinoid metabolite using liquid chromatography and tandem mass spectroscopy (LC-MS/MS).
# [11] = tested on: CMT12 cell line; details: 48 hours MTT
# Procedure: (§6) CMT12, 17-71 and D17 cells are plated at a density of 2500 cells per well in 96-well tissue culture-treated plates (Laboratory Product Sales, Rochester, New York). All cell lines are treated with identical concentrations of the pure CBD ([…]) and various concentrations of doxorubicin or vincristine. The concentration of doxorubicin varies between cell lines in order to achieve between 20% and 80% proliferation inhibition. The cell lines are treated with serial dilutions of doxorubicin as follows; CMT12 and D17 (0.067-2 μM) and 17-71 (0.0167-0.5 μM). Methanol is used as a vehicle control for all CBD treatments and sterile water for doxorubicin and vincristine at the highest doses used to represent the vehicle control treated wells. Cells are then incubated for 48 hours prior to performing MTT assays, as previously described. Wells treated with the vehicle control are considered to represent 100% proliferating cells in triplicate over three experiments. Percent viable cells for each specific combination are averaged and reported as mean percent proliferation+/— SD for further CI evaluation.
# (§7) Raw data from MTT proliferation assays and trypan blue exclusion assays (individual optical density of each well) are normalized to the vehicle control treatment for each cell line, considered to represent 100% proliferating cells (single or combined treatment). The percent proliferating cells is determined by comparing optical density readings or live counts, respectively, of treatment wells at each concentration compared with vehicle control wells in each cell line.
# (§8) The compound interactions of chemotherapy and CBD treatment in the CI studies are calculated by multiple drug effect analysis using Compusyn software (v.2; Compusyn Inc, Paramus, New Jersey) which employs the median equation principle according to the methodology described by Chou and Talalay to determine a CI value by the Formula I (Chou T C, Drug combination studies and their synergy quantification using the Chou-Talalay method, Cancer Res., 2010, 70(2), pp. 440-446, which is incorporated herein by reference in its entirety):
# (§9) where (D)1 and (D)2 are the doses of both compounds in combination and (Dx)1 and (Dx)2 are the doses of each compound alone at x percent of inhibition. CI values≤0.9 indicate synergism, a CI value>0.9 and <1.1 indicates an additive effect, and CI values≥1.1 indicate antagonism.
# [12] = tested on: D17 cell line; details: 48 hours MTT
# Procedure: as §6, §7, §8, §9
# CYP3A12, sequence (P24463 whole entry): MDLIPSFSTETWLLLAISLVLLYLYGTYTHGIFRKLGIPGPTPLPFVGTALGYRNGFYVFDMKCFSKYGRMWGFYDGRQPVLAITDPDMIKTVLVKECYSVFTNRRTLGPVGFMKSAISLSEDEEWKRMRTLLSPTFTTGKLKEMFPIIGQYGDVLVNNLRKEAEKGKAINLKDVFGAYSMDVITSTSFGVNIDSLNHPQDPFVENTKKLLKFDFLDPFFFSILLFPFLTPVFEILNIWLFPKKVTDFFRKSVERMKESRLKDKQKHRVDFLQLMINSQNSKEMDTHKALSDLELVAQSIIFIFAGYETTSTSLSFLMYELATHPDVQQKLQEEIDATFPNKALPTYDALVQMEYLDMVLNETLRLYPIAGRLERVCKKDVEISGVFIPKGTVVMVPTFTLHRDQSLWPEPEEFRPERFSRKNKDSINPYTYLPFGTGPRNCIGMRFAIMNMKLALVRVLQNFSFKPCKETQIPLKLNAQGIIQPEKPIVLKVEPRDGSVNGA
smiles,measurement,setting,value
"C=C(C)[C@@H]1CCC(C)=C[C@H]1c1c(O)cc(CCCCC)c(C(=O)O)c1O [CBDA, cannabidiolic acid]",time-dependent inhibition (TDI),[1],did not show TDI
same,time-dependent inhibition (TDI),[2],did not show TDI
same,time-dependent inhibition (TDI),[3],did not show TDI
same,IC50,"[4]; Canis lupus familiaris, B-cell, read-out: IC50 (Probit)",15.1 µg/mL
same,concentrations that significantly diminished proliferation vs vehicle control,[4]; P<0.05,≥ 5 µg/mL
same,IC50 (Probit),[5],could not be determined since 50% growth inhibition is not achieved in the assay
same,concentrations that significantly diminished proliferation vs vehicle control,[5]; P<0.05,≥ 10 µg/mL
same,IC50 (Probit),[6],could not be calculated because of lack of growth inhibition
same,concentrations that significantly diminished proliferation vs vehicle control,[6]; P<0.05,20 µg/mL
same,IC50 (Probit),[7],could not be calculated because of lack of growth inhibition
same,concentrations that significantly diminished proliferation vs vehicle control,[7]; P<0.05,20 µg/mL
same,IC50 (Probit),[8],could not be calculated because of lack of growth inhibition
same,concentrations that significantly diminished proliferation vs vehicle control,[8]; P<0.05,20 µg/mL
N.N.O=C([O-])C1(C(=O)[O-])CCC1.[Pt+2] [Carboplatin],Mean MFI ratio compound:vehicle,[9],0.74
same,MFI in MDCK PGP cells,[9]; rhodamine alone 215,160
"CCCCCc1cc(O)c2c(c1)OC(C)(C)[C@@H]1CCC(C)=C[C@@H]21 [THC, delta-9-tetrahydrocannabinol]",THC serum concentration,[10],below the quantitation limit of the assay for nearly all samples
"COc1cccc2c1C(=O)c1c(O)c3c(c(O)c1C2=O)C[C@@](O)(C(=O)CO)C[C@@H]3O[C@H]1C[C@H](N)[C@H](O)[C@H](C)O1 [doxorubicin, doxorubicin hydrochloride]",inhibitory concentrations from IC20-IC80,[11]; doxorubicin alone,0.5 to 2 µM
same,inhibitory concentrations from IC20-IC80,[12]; doxorubicin alone,0.5 to 2 µM
"CC[C@]1(O)C[C@H]2CN(CCc3c([nH]c4ccccc34)[C@@](C(=O)OC)(c3cc4c(cc3OC)N(C=O)[C@H]3[C@@](O)(C(=O)OC)[C@H](OC(C)=O)[C@]5(CC)C=CCN6CC[C@]43[C@@H]65)C2)C1 [vincristine, vincristine sulfate]",IC20-IC80 values,[11]; vincristine alone,1.7 to 6.8 nM
same,IC20-IC80 values,[12]; vincristine alone,1.7 to 6.8 nM

# From patent US20240075087A1, “COMPOSITIONS AND METHODS COMPRISING HEMP EXTRACT FOR THE TREATMENT OF ANIMALS IN NEED” (Portland Technology Holdings LLC, priority 2021, published 2024)
